We go through 15 molecules from publication PMC6832265 (Molecules, 2019).

The target of one test is T1, Tdp1 (Homo sapiens, UniProt Q9NUW8).
T1 construct: made in house; host or cells: Escherichia coli
Description: Real-time detection of Tdp1 activity (5'-FAM/3'-BHQ1 oligonucleotide biosensor). The format is biochemical. To be noted: 1.5 nM Tdp1, 50 nM oligonucleotide substrate, 26 °C. From the text:
We first studied the inhibition potency of our compounds to Tdp1 by using a real-time oligonucleotide biosensor assay that we have previously developed. The assay was based on the ability of Tdp1 to remove the fluorescence quencher from the 3’-end of DNA. The substrate is a 16-mer single-stranded oligonucleotide containing both a 5’-FAM fluorophore and a 3’-BHQ1 quencher.
A fluorophore quencher-coupled DNA-biosensor for real-time measurement of Tdp1 cleavage activity was recently designed in our laboratory. The biosensor is a 16-mer single-stranded oligonucleotide containing both a 5’-FAM fluorophore donor and a quenching 3’-BHQ1 moiety.
Recombinant protein Tdp1 was expressed in EsCherichia coli (pET 16B plasmid containing Tdp1 cDNA provided by Dr. K.W. Caldecott, University of Sussex, United Kingdom) and isolated as described. The reaction mixture in a final volume 200 μL contained Tdp1 reaction buffer (50 mM Tris-HCl, 50 mM NaCl, 7 mM β-mercaptoethanol), 50 nM oligonucleotide substrate, and varied concentrations of potential inhibitor. Purified Tdp1 was added in a final concentration of 1.5 nM.
The reaction mixtures were incubated at a constant temperature of 26 °C in a POLARstar OPTIMA fluorimeter, BMG LABTECH, GmbH, to measure fluorescence intensity every minute (Ex485/Em520 nm). Tdp1 inhibition was calculated by comparing the rate of increase in fluorescence of the biosensor in the presence of the compound to that of DMSO (1.5%) control wells. The measurements were carried out in at least two independent experiments. IC50 values were determined using a six-point concentration response curve. The data were imported into the MARS Data Analysis 2.0 program (BMG LABTECH) and the slope during the linear phase (data from 0 to 7 min) was calculated.

Test [1] addresses T2, recombinant Tdp1 (residues 149–608) (Homo sapiens, UniProt Q9NUW8).
T2 construct: recombinant Tdp1 (residues 149–608) was obtained from GenScript; host or cells: E. coli BL21(DE3)
Nature of the test: Intrinsic tryptophan fluorescence quenching binding assay. To be noted: 10 µM Tdp1, 20 mM Tris, 250 mM NaCl, pH 8; triplicate. As for the experimental part:
The binding of the synthesized compounds to recombinant Tdp1 was also tested (Table 1 and Table 2) by using an intrinsic tryptophan fluorescence quenching assay. […] As our compounds are aromatic in nature, there is a possibility that they may bind to both the active site as well as non-specifically to the DNA/peptide binding pockets. Nonetheless, our results confirmed that the compounds were indeed binders of Tdp1, thus complementing our inhibition data.
pET-28a(+) plasmid encoding recombinant Tdp1 (residues 149–608) was obtained from GenScript. E. coli BL21(DE3) was used for recombinant protein production. Protein production was induced with 1 mM IPTG at 28 °C with overnight incubation. Tdp1 was purified using affinity and size exclusion chromatography. Fluorescence was measured using a PerkinElmer EnSpire Multimode Reader. Tdp1 concentration was 10 μM with varying compound concentrations. The buffer was 20 mM Tris and 250 mM NaCl (pH 8). The excitation wavelength was 280 nm and intrinsic fluorescence was measured at 350 nm. Control experiments with Tdp1 or the compound on its own were also conducted. Background fluorescence arising from the compounds was subtracted from the final spectrum. The total volume per well was 30 μL. The dissociation constant (KD) was calculated using Equation (1), which takes non-specific binding into account. y = Bmaxx/(KD + x) + Nsx(1) where y denotes the changes in fluorescence intensity; x denotes the concentration of the compounds; Bmax denotes the maximum changes in fluorescence intensity; and Ns is a scaling factor for non-specific binding. Experiments were conducted in triplicate.

T1 sequence (Q9NUW8 whole entry): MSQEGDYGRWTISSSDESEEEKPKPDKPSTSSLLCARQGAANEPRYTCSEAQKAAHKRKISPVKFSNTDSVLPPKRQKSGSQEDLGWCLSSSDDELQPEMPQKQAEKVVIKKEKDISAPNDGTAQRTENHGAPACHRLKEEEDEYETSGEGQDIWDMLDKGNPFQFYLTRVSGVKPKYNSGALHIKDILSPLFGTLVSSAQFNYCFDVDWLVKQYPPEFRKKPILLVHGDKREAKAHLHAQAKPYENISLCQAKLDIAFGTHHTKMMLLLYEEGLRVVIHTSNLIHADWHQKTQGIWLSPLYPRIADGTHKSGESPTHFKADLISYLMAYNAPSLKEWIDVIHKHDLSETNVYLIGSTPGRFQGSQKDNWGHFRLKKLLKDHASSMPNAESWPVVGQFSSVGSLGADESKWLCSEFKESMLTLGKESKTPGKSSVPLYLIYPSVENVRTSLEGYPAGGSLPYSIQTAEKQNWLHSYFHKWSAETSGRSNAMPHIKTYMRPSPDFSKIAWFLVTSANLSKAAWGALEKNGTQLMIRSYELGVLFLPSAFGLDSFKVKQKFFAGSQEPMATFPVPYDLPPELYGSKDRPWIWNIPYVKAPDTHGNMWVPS
T2 sequence (Q9NUW8 149-608): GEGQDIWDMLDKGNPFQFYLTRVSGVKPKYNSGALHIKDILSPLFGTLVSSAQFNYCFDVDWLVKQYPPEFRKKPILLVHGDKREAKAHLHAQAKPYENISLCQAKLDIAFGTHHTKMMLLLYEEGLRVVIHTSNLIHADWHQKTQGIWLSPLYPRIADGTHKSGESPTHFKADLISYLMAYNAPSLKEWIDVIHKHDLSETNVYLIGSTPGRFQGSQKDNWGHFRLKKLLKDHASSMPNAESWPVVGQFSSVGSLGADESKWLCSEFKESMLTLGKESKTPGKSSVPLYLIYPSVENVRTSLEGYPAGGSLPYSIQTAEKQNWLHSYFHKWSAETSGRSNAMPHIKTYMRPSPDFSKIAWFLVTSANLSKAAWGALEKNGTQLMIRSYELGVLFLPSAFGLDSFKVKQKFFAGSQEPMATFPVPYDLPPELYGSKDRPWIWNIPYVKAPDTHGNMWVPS

As usually defined, the IC50 is the midpoint of a concentration-inhibition curve. Lower therefore signals higher potency. In general, Kd refers to the constant that tells how readily two partners part at equilibrium. Take `COc1ccc(/C=N/Nc2nc(-c3c(O)c(C)c(O)c4c3OC3=CC(O)=C(C(C)=O)C(=O)[C@@]34C)cs2)cc1COc1ccc(F)cc1` [(+)-17a, (2R)-4-Acetyl-10-{2-[(E)-2-({3-[(4-fluorophenoxy)methyl]-4-methoxyphenyl}methylidene)hydrazin-1-yl]-1,3-thiazol-4-yl}-5,11,13-trihydroxy-2,12-dimethyl-8-oxatricyclo[7.4.0.0^2,7]trideca-1(9),4,6,10,12-pentaen-3-one]: the 50% inhibitory concentration (IC50) against Tdp1 amounted to 0.026 ± 0.008 µM. In addition, the dissociation constant Kd in test [1] is 212 ± 25 µM.

As to `CC(=O)C1=C(O)C=C2Oc3c(-c4csc(N/N=C/c5ccco5)n4)c(O)c(C)c(O)c3[C@@]2(C)C1=O` [(+)-16k, (2R)-4-Acetyl-5,11,13-trihydroxy-2,12-dimethyl-10-{2-[(E)-2-[(furan-2-yl)methylidene] hydrazin-1-yl]-1,3-thiazol-4-yl}-8-oxatricyclo[7.4.0.0^2,7]trideca-1(9),4,6,10,12-pentaen-3-one], inhibition on Tdp1 was half-maximal at 0.12 ± 0.015 µM (IC50). For the same molecule, in test [1], the Kd came out at 67 ± 9 µM.

For the molecule `CC(=O)C1=C(O)C=C2Oc3c(-c4csc(N/N=C/c5cc(Br)cs5)n4)c(O)c(C)c(O)c3[C@]2(C)C1=O` [(−)-16h, (2S)-4-Acetyl-5,11,13-trihydroxy-2,12-dimethyl-10-{2-[(E)-2-[(4-bromothiophen-2-yl)methylidene]hydrazin-1-yl]-1,3-thiazol-4-yl}-8-oxatricyclo[7.4.0.0^2,7]trideca-1(9),4,6,10,12-pentaen-3-one], on Tdp1, the IC50 was 0.056 ± 0.004 µM. The Kd in test [1] was 355 ± 50 µM.

Molecule `COc1ccc(/C=N/Nc2nc(-c3c(O)c(C)c(O)c4c3OC3=CC(O)=C(C(C)=O)C(=O)[C@@]34C)cs2)cc1COc1ccc(Cl)c(C)c1` [(+)-17h, (2R)-4-Acetyl-10-{2-[(E)-2-({3-[(4-chloro-3-methylphenoxy)methyl]-4-methoxyphenyl}methylidene)hydrazin-1-yl]-1,3-thiazol-4-yl}-5,11,13-trihydroxy-2,12-dimethyl-8-oxatricyclo[7.4.0.0^2,7]trideca-1(9),4,6,10,12-pentaen-3-one] returned a half-inhibitory concentration (IC50) at Tdp1 of 0.074 ± 0.001 µM. In addition, the Kd in test [1] came to 188 ± 22 µM.

In turn, `COc1ccc(/C=N/Nc2nc(-c3c(O)c(C)c(O)c4c3OC3=CC(O)=C(C(C)=O)C(=O)[C@]34C)cs2)cc1COc1ccc(F)c(Cl)c1` [(−)-17d, (2S)-4-Acetyl-10-{2-[(E)-2-({3-[(3-chloro-4-fluorophenoxy)methyl]-4-methoxyphenyl}methylidene)hydrazin-1-yl]-1,3-thiazol-4-yl}-5,11,13-trihydroxy-2,12-dimethyl-8-oxatricyclo[7.4.0.0^2,7]trideca-1(9),4,6,10,12-pentaen-3-one] had an IC50 on Tdp1 of 0.018 ± 0.001 µM. In test [1], the Kd is 76 ± 5 µM.

In turn, `CC(=O)C1=C(O)C=C2Oc3c(-c4csc(N/N=C/c5ccccn5)n4)c(O)c(C)c(O)c3[C@@]2(C)C1=O` [(+)-16b, 2-[(1E)-(2-{4-[(1R)-12-Acetyl-3,5,11-trihydroxy-1,4-dimethyl-13-oxo-8-oxatricyclo[7.4.0.0^2,7]trideca-2(7),3,5,9,11-pentaen-6-yl]-1,3-thiazol-2-yl}hydrazin-1-ylidene)methyl]pyridin-1-ium bromide] showed an IC50 against Tdp1 of 0.492 ± 0.088 µM. In test [1], the Kd is 77 ± 24 µM.

“(2R)-4-Acetyl-10-{2-[(E)-2-({3-[(3,4-difluorophenoxy)methyl]-4-methoxyphenyl}methylidene)hydrazin-1-yl]-1,3-thiazol-4-yl}-5,11,13-trihydroxy-2,12-dimethyl-8-oxatricyclo[7.4.0.0^2,7]trideca-1(9),4,6,10,12-pentaen-3-one [(+)-17e]” yielded an IC50 against Tdp1 of 0.064 ± 0.006 µM. Besides, the Kd in test [1] amounted to 213 ± 4 µM.

For `COc1ccc(/C=N/Nc2nc(-c3c(O)c(C)c(O)c4c3OC3=CC(O)=C(C(C)=O)C(=O)[C@]34C)cs2)cc1COc1ccccc1F` [(−)-17c, (2S)-4-Acetyl-10-{2-[(E)-2-({3-[(2-fluorophenoxy)methyl]-4-methoxyphenyl}methylidene)hydrazin-1-yl]-1,3-thiazol-4-yl}-5,11,13-trihydroxy-2,12-dimethyl-8-oxatricyclo[7.4.0.0^2,7]trideca-1(9),4,6,10,12-pentaen-3-one], the IC50 at Tdp1 came to 0.037 ± 0.01 µM. Further, the equilibrium dissociation constant (Kd) in test [1] came to 74 ± 4 µM.

For `CC(=O)C1=C(O)C=C2Oc3c(-c4csc(N/N=C/c5ccncc5)n4)c(O)c(C)c(O)c3[C@@]2(C)C1=O` [(+)-16a, 4-[(1E)-(2-{4-[(1R)-12-Acetyl-3,5,11-trihydroxy-1,4-dimethyl-13-oxo-8-oxatricyclo[7.4.0.0^2,7]trideca-2(7),3,5,9,11-pentaen-6-yl]-1,3-thiazol-2-yl}hydrazin-1-ylidene)methyl]pyridin-1-ium bromide], half-maximal inhibition against Tdp1 (IC50) was put at 0.16 ± 0.016 µM. For the same molecule, in test [1], the Kd turned out to be 139 ± 32 µM.

As to `CC(=O)C1=C(O)C=C2Oc3c(-c4csc(N/N=C/c5ccc([N+](=O)[O-])s5)n4)c(O)c(C)c(O)c3[C@@]2(C)C1=O` [(+)-16d, (2R)-4-Acetyl-5,11,13-trihydroxy-2,12-dimethyl-10-{2-[(E)-2-[(5-nitrothiophen-2-yl)methylidene]hydrazin-1-yl]-1,3-thiazol-4-yl}-8-oxatricyclo[7.4.0.0^2,7]trideca-1(9),4,6,10,12-pentaen-3-one], the half-maximal inhibitory concentration (IC50) against Tdp1 came out at 0.07 ± 0.004 µM. The Kd in test [1] came out at 597 ± 98 µM.

`CC(=O)C1=C(O)C=C2Oc3c(-c4csc(N/N=C/c5ccc(-c6cccc(Cl)c6)o5)n4)c(O)c(C)c(O)c3[C@@]2(C)C1=O` [(+)-16r, (2R)-4-Acetyl-10-{2-[(E)-2-{[5-(3-chlorophenyl)furan-2-yl]methylidene}hydrazin-1-yl]-1,3-thiazol-4-yl}-5,11,13-trihydroxy-2,12-dimethyl-8-oxatricyclo[7.4.0.0^2,7]trideca-1(9),4,6,10,12-pentaen-3-one] came in with a half-inhibitory concentration (IC50) against Tdp1 of 0.055 ± 0.008 µM. For the same molecule, the Kd in test [1] came out at 113 ± 52 µM.

Regarding “(2R)-4-Acetyl-5,11,13-trihydroxy-2,12-dimethyl-10-{2-[(E)-2-[(thiophen-3-yl)methylidene] hydrazin-1-yl]-1,3-thiazol-4-yl}-8-oxatricyclo[7.4.0.0^2,7]trideca-1(9),4,6,10,12-pentaen-3-one amine [(+)-16j]”, the IC50 against Tdp1 was found to be 0.107 ± 0.031 µM. Also, in test [1], the Kd was found to be 65 ± 7 µM.

In the case of `CC(=O)C1=C(O)C=C2Oc3c(-c4csc(N/N=C/c5c[nH]c6ccccc56)n4)c(O)c(C)c(O)c3[C@@]2(C)C1=O` [(+)-16p, (2R)-4-Acetyl-5,11,13-trihydroxy-2,12-dimethyl-10-{2-[(E)-2-[(1H-indole-3-yl)methylidene] hydrazin-1-yl]-1,3-thiazol-4-yl}-8-oxatricyclo[7.4.0.0^2,7]trideca-1(9),4,6,10,12-pentaen-3-one], the IC50 against Tdp1 was 0.138 ± 0.003 µM. Moreover, the Kd in test [1] is 268 ± 11 µM.

Molecule `COc1ccc(/C=N/Nc2nc(-c3c(O)c(C)c(O)c4c3OC3=CC(O)=C(C(C)=O)C(=O)[C@@]34C)cs2)cc1COc1ccc(F)c(Cl)c1` [(+)-17d, (2R)-4-Acetyl-10-{2-[(E)-2-({3-[(3-chloro-4-fluorophenoxy)methyl]-4-methoxyphenyl}methylidene)hydrazin-1-yl]-1,3-thiazol-4-yl}-5,11,13-trihydroxy-2,12-dimethyl-8-oxatricyclo[7.4.0.0^2,7]trideca-1(9),4,6,10,12-pentaen-3-one] had a 50% inhibitory concentration (IC50) against Tdp1 of 0.077 ± 0.003 µM. Moreover, in test [1], the dissociation constant Kd was 130 ± 29 µM.

For the molecule `CC(=O)C1=C(O)C=C2Oc3c(-c4csc(N/N=C/c5ccoc5)n4)c(O)c(C)c(O)c3[C@]2(C)C1=O` [(−)-16l, (2S)-4-Acetyl-5,11,13-trihydroxy-2,12-dimethyl-10-{2-[(E)-2-[(furan-3-yl)methylidene] hydrazin-1-yl]-1,3-thiazol-4-yl}-8-oxatricyclo[7.4.0.0^2,7]trideca-1(9),4,6,10,12-pentaen-3-one], the midpoint of inhibition on Tdp1, the IC50, lay at 0.178 ± 0.004 µM. In test [1], the equilibrium dissociation constant (Kd) worked out at 233 ± 9 µM.
